# From PubChem BioAssay AID1918957 (Molecular Pharmacology Branch, DTP, NCI, 2023)
# System: NCI-H1876 complex spheroid viability
# Assay: Anticancer human tumor NCI-H1876 cell line growth inhibition [LSD1];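 also: spheroids exposed to compounds for one week before readout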;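 as to viability, T/C: 100% = DMSO vehicle-treated spheroids so lower means fewer viable cells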
# Conditions: for IC50: curve of first compound; for viability, T/C: stronger effect = lower value
# How it was run: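 Drug combinations with the LSD1 inhibitor iadademstat tested on tumor cells co-cultured as spheroids with endothelial cells and mesenchymal stem cells. Concentrations descended in half-log increments from clinical Cmax or 10 microM.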
# [1] = second compound 0.1 µM, first compound 0.00316 µM
# [2] = second compound 0.1 µM, first compound 0.01 µM
# [3] = second compound 0.1 µM, first compound 0.0316 µM
# [4] = second compound 0.1 µM, first compound 0.1 µM
# [5] = second compound 0.316 µM, first compound 0.00316 µM
# [6] = second compound 0.316 µM, first compound 0.01 µM
# [7] = second compound 0.316 µM, first compound 0.0316 µM
# [8] = second compound 0.316 µM, first compound 0.1 µM
# [9] = second compound 1 µM, first compound 0.00316 µM
# [10] = second compound 1 µM, first compound 0.01 µM
# [11] = second compound 1 µM, first compound 0.0316 µM
# [12] = second compound 1 µM, first compound 0.1 µM
# [13] = second compound 3.16 µM, first compound 0.00316 µM
# [14] = second compound 3.16 µM, first compound 0.01 µM
# [15] = second compound 3.16 µM, first compound 0.0316 µM
# [16] = second compound 3.16 µM, first compound 0.1 µM
# [17] = second compound 10 µM, first compound 0.00316 µM
# [18] = second compound 10 µM, first compound 0.01 µM
# [19] = second compound 10 µM, first compound 0.0316 µM
# [20] = second compound 10 µM, first compound 0.1 µM
# [21] = second compound 0.1 µM, first compound 0.00949 µM
# [22] = second compound 0.1 µM, first compound 0.03 µM
# [23] = second compound 0.1 µM, first compound 0.0949 µM
# [24] = second compound 0.1 µM, first compound 0.3 µM
# [25] = second compound 0.1 µM, first compound 0.949 µM
# [26] = second compound 0.1 µM, first compound 3 µM
# [27] = second compound 0.316 µM, first compound 0.00949 µM
# [28] = second compound 0.316 µM, first compound 0.03 µM
# [29] = second compound 0.316 µM, first compound 0.0949 µM
# [30] = second compound 0.316 µM, first compound 0.3 µM
# [31] = second compound 0.316 µM, first compound 0.949 µM
# [32] = second compound 0.316 µM, first compound 3 µM
# [33] = second compound 1 µM, first compound 0.00949 µM
# [34] = second compound 1 µM, first compound 0.03 µM
# [35] = second compound 1 µM, first compound 0.0949 µM
# [36] = second compound 1 µM, first compound 0.3 µM
# [37] = second compound 1 µM, first compound 0.949 µM
# [38] = second compound 1 µM, first compound 3 µM
# [39] = second compound 3.16 µM, first compound 0.00949 µM
# [40] = second compound 3.16 µM, first compound 0.03 µM
# [41] = second compound 3.16 µM, first compound 0.0949 µM
# [42] = second compound 3.16 µM, first compound 0.3 µM
# [43] = second compound 3.16 µM, first compound 0.949 µM
# [44] = second compound 3.16 µM, first compound 3 µM
# [45] = second compound 10 µM, first compound 0.00949 µM
# [46] = second compound 10 µM, first compound 0.03 µM
# [47] = second compound 10 µM, first compound 0.0949 µM
# [48] = second compound 10 µM, first compound 0.3 µM
# [49] = second compound 10 µM, first compound 0.949 µM
# [50] = second compound 10 µM, first compound 3 µM
smiles,measurement,setting,value
COc1cc(Nc2ncc3c(n2)-c2ccc(Cl)cc2C(c2c(F)cccc2OC)=NC3)ccc1C(=O)O + NC1CC1c1ccc(-c2cccc(O)c2)cc1,IC50,second compound 0.1 µM,28.5 nM
same,IC50,second compound 0.316 µM,37 nM
same,IC50,second compound 1 µM,35.9 nM
same,IC50,second compound 3.16 µM,30.1 nM
same,IC50,second compound 10 µM,41.2 nM
same,"viability, T/C",[1],69.2%
same,"viability, T/C",[2],61.6%
same,"viability, T/C",[3],48.2%
same,"viability, T/C",[4],35.7%
same,"viability, T/C","second compound 0.1 µM, first compound 0.316 µM",30.2%
same,"viability, T/C","second compound 0.1 µM, first compound 1 µM",16.3%
same,"viability, T/C",[5],64.9%
same,"viability, T/C",[6],64.5%
same,"viability, T/C",[7],50.2%
same,"viability, T/C",[8],37.5%
same,"viability, T/C","second compound 0.316 µM, first compound 0.316 µM",26%
same,"viability, T/C","second compound 0.316 µM, first compound 1 µM",15.8%
same,"viability, T/C",[9],78.4%
same,"viability, T/C",[10],62.1%
same,"viability, T/C",[11],51.5%
same,"viability, T/C",[12],40.5%
same,"viability, T/C","second compound 1 µM, first compound 0.316 µM",27.1%
same,"viability, T/C","second compound 1 µM, first compound 1 µM",16.2%
same,"viability, T/C",[13],65.9%
same,"viability, T/C",[14],58.4%
same,"viability, T/C",[15],49.8%
same,"viability, T/C",[16],38.5%
same,"viability, T/C","second compound 3.16 µM, first compound 0.316 µM",27.9%
same,"viability, T/C","second compound 3.16 µM, first compound 1 µM",15%
same,"viability, T/C",[17],64.3%
same,"viability, T/C",[18],62.1%
same,"viability, T/C",[19],53.1%
same,"viability, T/C",[20],38.7%
same,"viability, T/C","second compound 10 µM, first compound 0.316 µM",31.1%
same,"viability, T/C","second compound 10 µM, first compound 1 µM",17.2%
Cn1ncnc1C1c2n[nH]c(=O)c3cc(F)cc(c23)NC1c1ccc(F)cc1 (stereo not given) + NC1CC1c1ccc(-c2cccc(O)c2)cc1,IC50,second compound 0.1 µM,> 100 nM
same,IC50,second compound 0.316 µM,> 100 nM
same,IC50,second compound 1 µM,> 100 nM
same,IC50,second compound 3.16 µM,> 100 nM
same,IC50,second compound 10 µM,> 100 nM
same,"viability, T/C","second compound 0.1 µM, first compound 0.000316 µM",112%
same,"viability, T/C","second compound 0.1 µM, first compound 0.001 µM",113%
same,"viability, T/C",[1],111%
same,"viability, T/C",[2],97.9%
same,"viability, T/C",[3],92%
same,"viability, T/C",[4],90%
same,"viability, T/C","second compound 0.316 µM, first compound 0.000316 µM",108%
same,"viability, T/C","second compound 0.316 µM, first compound 0.001 µM",106%
same,"viability, T/C",[5],110%
same,"viability, T/C",[6],97.4%
same,"viability, T/C",[7],107%
same,"viability, T/C",[8],90.1%
same,"viability, T/C","second compound 1 µM, first compound 0.000316 µM",108%
same,"viability, T/C","second compound 1 µM, first compound 0.001 µM",115%
same,"viability, T/C",[9],108%
same,"viability, T/C",[10],106%
same,"viability, T/C",[11],96.2%
same,"viability, T/C",[12],87.8%
same,"viability, T/C","second compound 3.16 µM, first compound 0.000316 µM",109%
same,"viability, T/C","second compound 3.16 µM, first compound 0.001 µM",110%
same,"viability, T/C",[13],102%
same,"viability, T/C",[14],104%
same,"viability, T/C",[15],90.2%
same,"viability, T/C",[16],92.9%
same,"viability, T/C","second compound 10 µM, first compound 0.000316 µM",107%
same,"viability, T/C","second compound 10 µM, first compound 0.001 µM",102%
same,"viability, T/C",[17],95.5%
same,"viability, T/C",[18],96.7%
same,"viability, T/C",[19],89.7%
same,"viability, T/C",[20],78.8%
NS(=O)(=O)OCC1CC(n2ccc3c(NC4CCc5ccccc54)ncnc32)CC1O (stereo not given) + NC1CC1c1ccc(-c2cccc(O)c2)cc1,IC50,second compound 0.1 µM,84.6 nM
same,IC50,second compound 0.316 µM,94.3 nM
same,IC50,second compound 1 µM,78.2 nM
same,IC50,second compound 3.16 µM,130 nM
same,IC50,second compound 10 µM,187 nM
same,"viability, T/C",[21],93.3%
same,"viability, T/C",[22],58%
same,"viability, T/C",[23],52%
same,"viability, T/C",[24],45.5%
same,"viability, T/C",[25],44.5%
same,"viability, T/C",[26],37.4%
same,"viability, T/C",[27],82.4%
same,"viability, T/C",[28],59.1%
same,"viability, T/C",[29],50.6%
same,"viability, T/C",[30],45.8%
same,"viability, T/C",[31],42.8%
same,"viability, T/C",[32],38.4%
same,"viability, T/C",[33],86.6%
same,"viability, T/C",[34],56.8%
same,"viability, T/C",[35],49.4%
same,"viability, T/C",[36],47.2%
same,"viability, T/C",[37],41.3%
same,"viability, T/C",[38],38.3%
same,"viability, T/C",[39],91.1%
same,"viability, T/C",[40],63%
same,"viability, T/C",[41],53.6%
same,"viability, T/C",[42],46.7%
same,"viability, T/C",[43],39.9%
same,"viability, T/C",[44],36.2%
same,"viability, T/C",[45],87.2%
same,"viability, T/C",[46],73.6%
same,"viability, T/C",[47],55.5%
same,"viability, T/C",[48],45%
same,"viability, T/C",[49],38.6%
same,"viability, T/C",[50],30.9%
O=C(C=Cc1cccc(S(=O)(=O)Nc2ccccc2)c1)NO + NC1CC1c1ccc(-c2cccc(O)c2)cc1,IC50,second compound 0.1 µM,165 nM
same,IC50,second compound 0.316 µM,165 nM
same,IC50,second compound 1 µM,171 nM
same,IC50,second compound 3.16 µM,178 nM
same,IC50,second compound 10 µM,157 nM
same,"viability, T/C",[21],110%
same,"viability, T/C",[22],111%
same,"viability, T/C",[23],81.1%
same,"viability, T/C",[24],16.3%
same,"viability, T/C",[25],6.97%
same,"viability, T/C",[26],0.3%
same,"viability, T/C",[27],107%
same,"viability, T/C",[28],115%
same,"viability, T/C",[29],80.4%
same,"viability, T/C",[30],16.8%
same,"viability, T/C",[31],5.12%
same,"viability, T/C",[32],0.27%
same,"viability, T/C",[33],114%
same,"viability, T/C",[34],109%
same,"viability, T/C",[35],85.6%
same,"viability, T/C",[36],15.9%
same,"viability, T/C",[37],5.57%
same,"viability, T/C",[38],0.28%
same,"viability, T/C",[39],111%
same,"viability, T/C",[40],111%
same,"viability, T/C",[41],87.8%
same,"viability, T/C",[42],18.4%
same,"viability, T/C",[43],5.71%
same,"viability, T/C",[44],0.36%
same,"viability, T/C",[45],108%
same,"viability, T/C",[46],102%
same,"viability, T/C",[47],71.7%
same,"viability, T/C",[48],21.7%
same,"viability, T/C",[49],5.51%
same,"viability, T/C",[50],0.42%
